Test results reported in article PMC7114187 (Antiviral Research, 2008).
pEC50, pIC50: −log10 of the molar value. Structures can show the parent of a compound that is named as a salt. Where two headings read alike, the source gives them in different places.

How the values were obtained:
in vitro = details: dog
influenza viruses = assay: microbe, parasite or virus in culture; type: cell-based, influenza virus; details: for inhibition at 10 µM: read-out: inhibition of CPE at 10 μM
[1] = tested on: influenza neuraminidase (NA), inactivated viral suspensions of influenza A/Udorn/72 (H3N2); type: biochemical
[2] = tested on: influenza A/WSN/33 (H1N1); type: cell-based
[3] = tested on: influenza A/WSN/33 (H1N1); assay: microbe, parasite or virus in culture; type: cell-based; details: read-out: EC50 viral plaque formation
NIBRG-14 (H5N1) = assay: microbe, parasite or virus in culture; type: cell-based, influenza NIBRG-14 (H5N1); details: read-out: EC50 viral plaque formation
[4] = tested on: influenza A/Udorn/72 (H3N2); assay: microbe, parasite or virus in culture; type: cell-based; details: read-out: EC50 viral plaque formation
[5] = biological target: NA in inactivated viral suspension of influenza A/Udorn/72 (H3N2) (Influenza A virus (H3N2), UniProt P0DOF6); type: biochemical; details: read-out: IC50 NA inhibition
[6] = biological target: influenza A/WSN/33 (H1N1) polymerase complex (PA, PB1, PB2, NP) (Influenza A virus, UniProt P03427+P03430+P15659); type: cell-based
SARS-CoV = details: cited from earlier work
[7] = unidentified influenza virus, MDCK, 72 h, read-out: CPE inhibition IC50 (<10 μM)
[8] = unidentified influenza virus, MDCK
[9] = read-out: CPE inhibition IC50 (<10 μM), symbol

For `CO[C@H]1C[C@H](O[C@H]2CC[C@]3(C)[C@H]4CC[C@]5(C)[C@@H](C6=CC(=O)OC6)CC[C@]5(O)[C@@H]4CC[C@]3(O)C2)O[C@H](C)[C@H]1O` [Periplocymarin], the CC50 (in vitro) was under 50 µM, the pIC50 (influenza viruses; [7]) was 6.52 and the inhibition at 10 µM (influenza viruses; [8]) was over 50%. The “NA activity inhibition at 50 μM (%)” value [1] was 75.2%.

With `CC(=O)[C@@]1(O)CC[C@H]2[C@@H]3C=C(Cl)C4=CC(=O)[C@@H]5C[C@@H]5[C@]4(C)[C@H]3CC[C@@]21C` [Cyproterone] the pIC50 (influenza viruses; [9]) was under 5.00 and the “NA activity inhibition at 50 μM (%)” value [1] was 55.7%.

In the case of `CCOC(=O)C1=C(O)C(=O)N(Cc2ccccc2)C1` [Ethyl1-benzyl-3-hydroxy-2-oxo(5H)pyrrole-4-carboxylate], the “NA activity inhibition at 50 μM (%)” value [1] was 71.9%.

In the case of `C1CNCCN1` [Piperazine], the “NA activity inhibition at 50 μM (%)” value [1] was 100.0%.

For `O=C(O)c1cc(O)c2c(c1)[C@H]([C@H]1c3cc(C(=O)O)cc(O)c3C(=O)c3c(O[C@@H]4O[C@H](CO)[C@@H](O)[C@H](O)[C@H]4O)cccc31)c1cccc(O[C@@H]3O[C@H](CO)[C@@H](O)[C@H](O)[C@H]3O)c1C2=O` [Sennoside A], the “NA activity inhibition at 50 μM (%)” value [1] was 61.9%.

For `CCC(CC)O[C@@H]1C=C(C(=O)O)C[C@H](N)[C@H]1NC(C)=O` [GS4071, Oseltamivir carboxylate], the “reduction in the yield of progeny virus” value [2] was “no reduction”, the “reduction of the viral yield” value [2] was “effective to reduce the viral yield” and the pEC50 [3] was about 7.40. It also gave a CC50 (in vitro) of over 25 µM, a pEC50 (NIBRG-14 (H5N1)) of […] and a pEC50 [4] of about 7.40. The pIC50 (influenza viruses; read-out: CPE inhibition IC50 (<10 μM)) was 7.00 and the “NA activity inhibition at 50 μM (%)” value [1] was 100.0%.

For `CCc1ccc2c(O)c3c(cc2c1C(=O)OC)C(=O)c1c(O)ccc(O)c1C3=O` [Bisanhydrorutilantinone], the “NA activity inhibition at 50 μM (%)” value [1] was 71.9%.

With `CC1(C)OCC(C2OC(=O)C(O)=C2O)O1` (stereo not drawn) [Ascorbic acid acetonide] the pIC50 (influenza viruses; [9]) was under 5.00 and the “NA activity inhibition at 50 μM (%)” value [1] was 83.5%.

With `N#Cc1c(Cl)c(Cl)c(Cl)c(C#N)c1Cl` [Tetrachloroisophthalonitrile] the pIC50 (influenza viruses; [9]) was under 5.00 and the “NA activity inhibition at 50 μM (%)” value [1] was 76.9%.

In the case of `CC(=O)N1CCN(c2ccc(OCC3COC(Cn4ccnc4)(c4ccc(Cl)cc4Cl)O3)cc2)CC1` (stereo not drawn) [Ketoconazole], the “NA activity inhibition at 50 μM (%)” value [1] was 72.2%.

With `O=c1c(O)c(-c2cc(O)c(O)c(O)c2)oc2cc(O)cc(O)c12` [Myricetin] the “NA activity inhibition at 50 μM (%)” value [1] was 61.6%.

With `Cc1cnc(NC(=O)C2=C(O)c3ccccc3S(=O)(=O)N2C)s1` [Meloxicam] the “NA activity inhibition at 50 μM (%)” value [1] was 62.1%.

For `O=C(O[C@@H]1Cc2c(O)cc(O)cc2O[C@@H]1c1cc(O)c(O)c(O)c1-c1c([C@H]2Oc3cc(O)cc(O)c3C[C@H]2OC(=O)c2cc(O)c(O)c(O)c2)cc(O)c(O)c1O)c1cc(O)c(O)c(O)c1` [2′2′-Bisepigallocatechin digallate], the CC50 (MDCK cells) was over 50 µM, the pIC50 (influenza viruses; [9]) was under 5.00 and the “NA activity inhibition at 50 μM (%)” value [1] was 60.6%.

For `CCCc1ncc(C[n+]2ccccc2C)c(N)n1` [Amprolium], the “NA activity inhibition at 50 μM (%)” value [1] was 95.0%.

With `O=C(O[C@@H]1Cc2c(O)cc(O)cc2O[C@@H]1c1cc(O)c(=O)c2c(O)c(O)cc([C@H]3Oc4cc(O)cc(O)c4C[C@H]3OC(=O)c3cc(O)c(O)c(O)c3)c2c1)c1cc(O)c(O)c(O)c1` [Theaflavin digallate] the “NA activity inhibition at 50 μM (%)” value [1] was 61.5%.

In the case of `S=C=NCc1ccccc1` [Benzyl isothiocyanate], the “NA activity inhibition at 50 μM (%)” value [1] was 75.5%.

For `O=C(O)C1=CC(=C(c2ccc(O)c(C(=O)O)c2)c2ccc(O)c(C(=O)O)c2)C=CC1=O` [ATA, aurintricarboxylic acid], the “reduction of the viral yield” value [2] was over 1000 fold, the “reduction of the yield of influenza progeny virus” value [2] was “only marginal activity” and the pEC50 ([3]; Influenza A virus, H1N1|WSN, MDCK) was 5.39. It also gave a CC50 (in vitro) of 95.5 µM, a pIC50 [5] of 4.86 and a pEC50 (NIBRG-14 (H5N1); Influenza A virus, H5N1, MDCK) of 5.27. The “inhibition of RdRp-derived expression of CAT” value [6] was “did not inhibit”, the pEC50 ([4]; Influenza A virus, H3N2, MDCK) was 5.20 and the pIC50 (influenza viruses; [7]) was 5.03. The inhibition at 10 µM (influenza viruses; [8]) was over 50%, the “EC50 for SARS-CoV” value (SARS-CoV) was 200 µg/mL and the “NA activity inhibition at 50 μM (%)” value [1] was 100.0%.

In the case of `O=C(/C=C/c1ccc(O)cc1)c1ccc(O)cc1O` [Isoliquiritigenin], the “NA activity inhibition at 50 μM (%)” value [1] was 62.6%.

In the case of `COC(=O)C(N)CS` (stereo not drawn) [Mecysteine hydrochloride], the “NA activity inhibition at 50 μM (%)” value [1] was 51.3%.

With `Cc1cc(=O)c2c(o1)-c1c(cc(O)c(O)c1C(=O)O)OC2` [Citromycetin] the pIC50 (influenza viruses; [9]) was under 5.00 and the “NA activity inhibition at 50 μM (%)” value [1] was 46.8%.

With `COc1ccc(-c2cc(=O)c3c(O)cc(O)cc3o2)cc1O` [Diosmetin] the “NA activity inhibition at 50 μM (%)” value [1] was 59.0%.
